Measured values as given in patent publication US20230287416A1, “COMBINATORY TREATMENT OF SMA WITH SARNA AND MRNA MODULATORS” (RACTIGEN THERAPEUTICS, priority 2020, published 2023).

Test system: SMN2 mRNA
Assay: RT-qPCR of SMN2FL and SMN2 Δ7 mRNA in brain, liver and spinal cord of SMA type III mice
Type: in vivo, mouse
Experimental: The combinatory effect of LNP-R6-04M1 with LNP-ASO-10-27 or with Risdiplam were in evaluated in vivo, in SMA type IU mice. Neonatal mice were divided into 10 treatment groups: • Treatment Group 1: administration of LNP-R6-04M1 via ICV injection (injected twice on P1 and P3 respectively, each with 10 ug of LNP-R6-04M1); • Treatment Group 2: administration of LNP-ASO-10-27 via ICV injection (injected twice on P1 and P3 respectively, each with 10 ug of LNP-ASO-10-27); • Treatment Group 3: administration of Risdiplam via IP injection on P1 at a concentration of 0.3 mg/kg; • Treatment Group 4: administration of Risdiplam via IP injection on P1 at a concentration of 1 mg/kg; • Treatment Group 5: administration of Risdiplam via IP injection on P1 at a concentration of 3 mg/kg; • Treatment Group 6: combinatory treatment via administration of LNP-R6-04M1 and LNP-ASO-10-27. LNP-R6-04M1 was administered via ICV injection on P1 (10 ug), while LNP-ASO-10-27 was administered via ICV injection on P3 (10 ug); • Treatment Group 7: combinatory treatment via administration of LNP-ASO-10-27 and LNP-R6-04M1. LNP-ASO-10-27 was administered via ICV injection on P1 (10 ug), while LNP-R6-04M1 was administered via ICV injection on P3 (10 ug); • Treatment Group 8: combinatory treatment of LNP-R6-04M1 and Risdiplam. LNP-R6-04M1 was injected on P1 (10 ug) via ICV injection, and Risdiplam was injected via IP injection on P3 at a concentration of 0.3 mg/kg; • Treatment Group 9: combinatory treatment of LNP-R6-04M1 and Risdiplam. LNP-R6-04M1 was injected on P1 (10 ug) via ICV injection, and Risdiplam was injected via IP injection on P3 at a concentration of 1 mg/kg;
The SMA type LII mice were treated saline twice on P1 (5 μL) and P3(5 μL) via subcutaneous (SC) injection. P1 and P3 means postnatal day 1 and day3;
Treatment Group 10: treatment of mice with saline SMN2FL and SMN2 Δ7 mRNA levels were quantified by RT-qPCR in tissues of the brain, liver and spinal cord.
For RNA isolation from cultured cells, total cellular RNA was isolated from treated cells using an RNeasy Plus Mini kit (Qiagen, Hilden, Germany) according to its manual. To isolated RNA from animal tissues, tissues were harvested and stored at RNA later (AM7021, Thermo Fisher). Total RNA was then isolated using MagPure Total RNA Micro LQ kit (Magen, R6621, China) by auto-pure96 machine (ALLSHENG, China). The resultant RNA (1 μg) was reverse transcribed into cDNA by using a PrimeScript RT kit containing gDNA Eraser (Takara, Shlga, Japan). The resultant cDNA was amplified in an ABI 7500 Fast Real-time PCR System (Applied Biosystems; Foster City, Calif.) using SYBR Premix Ex Taq 11 (Takara, Shlga, Japan) reagents and primers which specifically amplified full-length (SMN2FL) or A7 SMN2 mRNA (SMN2 Δ7) (FIG. 1). The reaction conditions were: 95° C. for 3 seconds (1 cycle) and 60° C. for 30 seconds (40 cycles). Amplification of TBP gene served as an internal control.
All animal procedures were conducted by certified laboratory personnel using protocols consistent with local and state regulations and approved by the Institutional Animal Care and Use Committee. SMA-like mice created by homozygous knock-out of mouse Smn exon 7 with transgene of human SMN2 (Smn−/−SMN2+/−) as previously described Hsieh-Li et al. (Hsieh-Li, H. M., et al. A mouse model for spinal muscular atrophy. Nature Genet (2000) were obtained from Jackson Laboratories. Tail snips were gathered at postnatal day 0 (P0), and each pup was identified by paw tattooing and genotyped by PCR analysis using a set of 3 specific primers: S1, 5′-[…]-3′, and S2, 5′-[…]-3′ (1,150 bp band for wild type alleles) and S1 and H1, 5′-[…]-3′ (950 bp band for mutant alleles). The PCR products were detected by 1% agarose gel. Severe SMA mice (Smn^−/−, SMN^+/0) were generated. Littermates heterozygous for mouse Smn (Smn1^+/−, SMN2^+/−) were used as controls. […]

[1] = brain, IP on P1, 0.3 mg/kg (Treatment Group 3)
[2] = brain, IP on P1, 1 mg/kg (Treatment Group 4)
[3] = brain, IP on P1, 3 mg/kg (Treatment Group 5)
[4] = liver, IP on P1, 0.3 mg/kg (Treatment Group 3)
[5] = liver, IP on P1, 1 mg/kg (Treatment Group 4)
[6] = liver, IP on P1, 3 mg/kg (Treatment Group 5)

Question: Which “SMN2FL mRNA expression, fold relative to control” value [1] does the source give for Cc1cn2nc(-c3cc(=O)n4cc(N5CCNC6(CC6)C5)ccc4n3)cc(C)c2n1 [Risdiplam] here?
Answer: Its value is 1.1 fold.

Question: What about the “SMN2 Δ7 mRNA expression, fold relative to control” value [1] of the same compound?
Answer: The value was 1.0 fold.

Question: What about the “SMN2FL mRNA expression, fold relative to control” value [2] of the same compound?
Answer: Its value is 1.3 fold.

Question: And the “SMN2 Δ7 mRNA expression, fold relative to control” value [2]?
Answer: Its value is 1.0 fold.

Question: What about the “SMN2FL mRNA expression, fold relative to control” value [3] of the same compound?
Answer: Its value is 1.0 fold.

Question: And the “SMN2 Δ7 mRNA expression, fold relative to control” value [3]?
Answer: Its value is 1.0 fold.

Question: And the “SMN2FL mRNA expression, fold relative to control” value [4]?
Answer: Its value is 1.1 fold.

Question: And the “SMN2 Δ7 mRNA expression, fold relative to control” value [4]?
Answer: Its value is 1.0 fold.

Question: What about the “SMN2FL mRNA expression, fold relative to control” value [5] of the same compound?
Answer: The value was 1.5 fold.

Question: What about the “SMN2 Δ7 mRNA expression, fold relative to control” value [5] of the same compound?
Answer: The value was 0.9 fold.

Question: What about the “SMN2FL mRNA expression, fold relative to control” value [6] of the same compound?
Answer: Its value is 1.0 fold.

Question: And the “SMN2 Δ7 mRNA expression, fold relative to control” value [6]?
Answer: The value was 1.0 fold.
